Test results published in patent publication US20240108601A1, “TREATMENT OF MENTAL DISORDERS” (GH Research Ireland Limited, priority 2022, published 2024).
“And” between values parts separate entries of the source, which are not always exact repeats. Equal values may be shown once.

System: patients with treatment-resistant major depressive disorder (TRD)
Assay: Phase 1/2 clinical trial of inhaled 5-MeO-DMT in treatment-resistant depression
Settings: for MADRS Concentration Difficulties % improvement / MADRS Concentration Difficulties improvement / MADRS Inability to Feel % improvement / MADRS Inability to Feel improvement / MADRS Inner Tension % improvement / MADRS Inner Tension improvement / MADRS Lassitude % improvement / MADRS Lassitude improvement / MADRS Pessimistic Thoughts % improvement / MADRS Pessimistic Thoughts improvement / MADRS Suicidal Thoughts % improvement / MADRS Suicidal Thoughts improvement / MADRS Suicidal Thoughts aggregated score / MADRS Inner Tension aggregated score / MADRS Lassitude aggregated score / MADRS Pessimistic Thoughts aggregated score / MADRS Concentration Difficulties aggregated score / MADRS Inability to Feel aggregated score / BPRS Anxiety % improvement / BPRS Anxiety improvement / BPRS Blunted Affect % improvement / BPRS Blunted Affect improvement / BPRS Emotional Withdrawal % improvement / BPRS Emotional Withdrawal improvement / BPRS Guilt Feelings % improvement / BPRS Guilt Feelings improvement / BPRS Tension % improvement / BPRS Tension improvement / BPRS Emotional Withdrawal aggregated score / BPRS Blunted Affect aggregated score / BPRS Tension aggregated score / BPRS Guilt Feelings aggregated score / BPRS Anxiety aggregated score / MADRS Reduced Sleep % improvement / MADRS Reduced Sleep improvement / MADRS Reduced Sleep aggregated score: IDR n=8; for MADRS Suicidal Thoughts aggregated score: baseline 11; for MADRS Inner Tension aggregated score: baseline 26; for MADRS Lassitude aggregated score: baseline 27; for MADRS Pessimistic Thoughts aggregated score: baseline 28; for MADRS Concentration Difficulties aggregated score: baseline 30; for MADRS Inability to Feel aggregated score: baseline 36; for BPRS Emotional Withdrawal aggregated score: baseline 13; for BPRS Blunted Affect aggregated score: baseline 15; for BPRS Tension aggregated score: baseline 16; for BPRS Guilt Feelings aggregated score: baseline 34; for BPRS Anxiety aggregated score: baseline 37; for MADRS Reduced Sleep aggregated score: baseline 25
Method: Patients were assigned to different groups. In the context of the present invention, the group who received a single, 12 mg dose and the group who underwent an intra-day individualized dosing regimen (IDR) that allowed for multiple, escalating doses (6 mg, 12 mg and 18 mg) within a single day, driven by the intensity of the patient-reported psychedelic experience are of interest.
The data gathered include the assessment of the treated patients against several scales including the Montgomery Åsberg Depression Rating Scale (MADRS) and the Brief Psychiatric Rating Scale (BPRS).
This trial was designed in two parts. Part A was an open-label, single-arm, single-dose Phase 1 trial with two dose levels (12 mg (n=4) and 18 mg (n=4)). […] The primary endpoint of Part B was to assess the effects on the severity of depression, as assessed by the proportion of patients in remission on day seven after dosing, defined as a MADRS total score of less than or equal to 10.

SMILES: COc1ccc2[nH]cc(CCN(C)C)c2c1 [5-MeO-DMT]
- MADRS Concentration Difficulties % improvement (2 h): 63% and 63.33%
- MADRS Concentration Difficulties improvement (2 h): 19 points
- MADRS Inability to Feel % improvement (2 h): 67% and 66.67%
- MADRS Inability to Feel improvement (2 h): 24 points
- MADRS Inner Tension % improvement (2 h): 58% and 57.69%
- MADRS Inner Tension improvement (2 h): 15 points
- MADRS Lassitude % improvement (2 h): 63% and 62.96%
- MADRS Lassitude improvement (2 h): 17 points
- MADRS Pessimistic Thoughts % improvement (2 h): 75%
- MADRS Pessimistic Thoughts improvement (2 h): 21 points
- MADRS Suicidal Thoughts % improvement (2 h): 73% and 72.72%
- MADRS Suicidal Thoughts improvement (2 h): 8 points
- MADRS Suicidal Thoughts aggregated score (2 h): 3
- MADRS Inner Tension aggregated score (2 h): 11
- MADRS Lassitude aggregated score (2 h): 10
- MADRS Pessimistic Thoughts aggregated score (2 h): 7
- MADRS Concentration Difficulties aggregated score (2 h): 11
- MADRS Inability to Feel aggregated score (2 h): 12
- BPRS Anxiety % improvement (3 h): 49% and 48.65%
- BPRS Anxiety improvement (3 h): 18 points
- BPRS Blunted Affect % improvement (3 h): 27% and 26.67%
- BPRS Blunted Affect improvement (3 h): 4 points
- BPRS Emotional Withdrawal % improvement (3 h): 38% and 38.46%
- BPRS Emotional Withdrawal improvement (3 h): 5 points
- BPRS Guilt Feelings % improvement (3 h): 59% and 58.82%
- BPRS Guilt Feelings improvement (3 h): 20 points
- BPRS Tension % improvement (3 h): 31% and 31.25%
- BPRS Tension improvement (3 h): 5 points
- BPRS Emotional Withdrawal aggregated score (3 h): 8
- BPRS Blunted Affect aggregated score (3 h): 11
- BPRS Tension aggregated score (3 h): 11
- BPRS Guilt Feelings aggregated score (3 h): 14
- BPRS Anxiety aggregated score (3 h): 19
- BPRS Anxiety % improvement (day 1): 57% and 56.76%
- BPRS Anxiety improvement (day 1): 21 points
- BPRS Blunted Affect % improvement (day 1): 47% and 46.67%
- BPRS Blunted Affect improvement (day 1): 7 points
- BPRS Emotional Withdrawal % improvement (day 1): 38% and 38.46%
- BPRS Emotional Withdrawal improvement (day 1): 5 points
- BPRS Guilt Feelings % improvement (day 1): 68% and 67.65%
- BPRS Guilt Feelings improvement (day 1): 23 points
- BPRS Tension % improvement (day 1): 31% and 31.25%
- BPRS Tension improvement (day 1): 5 points
- MADRS Concentration Difficulties % improvement (day 1): 97% and 96.67%
- MADRS Concentration Difficulties improvement (day 1): 29 points
- MADRS Inability to Feel % improvement (day 1): 94% and 94.44%
- MADRS Inability to Feel improvement (day 1): 34 points
- MADRS Inner Tension % improvement (day 1): 77% and 76.92%
- MADRS Inner Tension improvement (day 1): 20 points
- MADRS Lassitude % improvement (day 1): 81% and 81.48%
- MADRS Lassitude improvement (day 1): 22 points
- MADRS Pessimistic Thoughts % improvement (day 1): 86% and 85.71%
- MADRS Pessimistic Thoughts improvement (day 1): 24 points
- MADRS Reduced Sleep % improvement (day 1): 52%
- MADRS Reduced Sleep improvement (day 1): 13 points
- MADRS Suicidal Thoughts % improvement (day 1): 91% and 90.91%
- MADRS Suicidal Thoughts improvement (day 1): 10 points
- MADRS Suicidal Thoughts aggregated score (day 1): 1
- BPRS Emotional Withdrawal aggregated score (day 1): 8
- BPRS Blunted Affect aggregated score (day 1): 8
- BPRS Tension aggregated score (day 1): 11
- MADRS Reduced Sleep aggregated score (day 1): 12
- MADRS Inner Tension aggregated score (day 1): 6
- MADRS Lassitude aggregated score (day 1): 5
- MADRS Pessimistic Thoughts aggregated score (day 1): 4
- MADRS Concentration Difficulties aggregated score (day 1): 1
- BPRS Guilt Feelings aggregated score (day 1): 11
- MADRS Inability to Feel aggregated score (day 1): 2
- BPRS Anxiety aggregated score (day 1): 16
- BPRS Anxiety % improvement (day 7): 54% and 54.05%
- BPRS Anxiety improvement (day 7): 20 points
- BPRS Blunted Affect % improvement (day 7): 47% and 46.67%
- BPRS Blunted Affect improvement (day 7): 7 points
- BPRS Emotional Withdrawal % improvement (day 7): 38% and 38.46%
- BPRS Emotional Withdrawal improvement (day 7): 5 points
- BPRS Guilt Feelings % improvement (day 7): 71% and 70.59%
- BPRS Guilt Feelings improvement (day 7): 24 points
- BPRS Tension % improvement (day 7): 38% and 37.50%
- BPRS Tension improvement (day 7): 6 points
- MADRS Concentration Difficulties % improvement (day 7): 70%
- MADRS Concentration Difficulties improvement (day 7): 21 points
- MADRS Inability to Feel % improvement (day 7): 83% and 83.33%
- MADRS Inability to Feel improvement (day 7): 30 points
- MADRS Inner Tension % improvement (day 7): 54% and 53.85%
- MADRS Inner Tension improvement (day 7): 14 points
- MADRS Lassitude % improvement (day 7): 89% and 88.89%
- MADRS Lassitude improvement (day 7): 24 points
- MADRS Pessimistic Thoughts % improvement (day 7): 89% and 89.29%
- MADRS Pessimistic Thoughts improvement (day 7): 25 points
- MADRS Reduced Sleep % improvement (day 7): 64%
- MADRS Reduced Sleep improvement (day 7): 16 points
- MADRS Suicidal Thoughts % improvement (day 7): 73% and 72.73%
- MADRS Suicidal Thoughts improvement (day 7): 8 points
- MADRS Suicidal Thoughts aggregated score (day 7): 3
- BPRS Emotional Withdrawal aggregated score (day 7): 8
- BPRS Blunted Affect aggregated score (day 7): 8
- BPRS Tension aggregated score (day 7): 10
- MADRS Reduced Sleep aggregated score (day 7): 9
- MADRS Inner Tension aggregated score (day 7): 12
- MADRS Lassitude aggregated score (day 7): 3
- MADRS Pessimistic Thoughts aggregated score (day 7): 3
- MADRS Concentration Difficulties aggregated score (day 7): 9
- BPRS Guilt Feelings aggregated score (day 7): 10
- MADRS Inability to Feel aggregated score (day 7): 6
- BPRS Anxiety aggregated score (day 7): 17
- Patients maintaining remission (IDR, Day 7): 7/8
- Patients achieving remission (IDR, day 1): 8/8
- Patients achieving remission (IDR, within 2h after dosing): 5/8
- SAEs (Part A): No SAEs were reported
- Changes in safety laboratory analyses, vital signs, psychiatric safety assessments, cognitive function (Part A and Part B): No clinically significant changes
- Patients with at least one ADR (Part A, both groups (12 mg and 18 mg), all mild, resolved spontaneously): 3 of 4
- SAEs (Part B): No SAEs were reported
- Patients with at least one ADR (Part B IDR n=8, all resolved spontaneously): 87.5%
- Hypomania induction (TRD patients): no evidence of hypomania induction
